Results from US7094770B2, “3′-or 2′-hydroxymethyl substituted nucleoside derivatives for treatment of hepatitis virus infections” (Pharmasset, Ltd., priority 2000, dated 2006).
Read-outs that look alike come from different tables or passages of the source.

Legend:
HBV [1] = assay: Cell culture assay for anti-HBV activity (2.2.15 cells, HBV DNA in medium by Southern blot); format: cell-based, Hepatitis B virus; conditions: for EC50: read-out: Anti-HBV EC50
Source text: We follow the protocol described by Korba and Gerin(Antiviral Res., 1992, 19:55) and Pai et al. (Antimicrobial Agents Chemother., 1996, 40:380) which is used widely in the field. The HepG 2 2.2.15 cells contain a stably integrated HBV genome, the transcript from which serves as a template for viral replication. The cells produce virions which are elaborated into the medium. The production of the virion DNA is monitored by analysis of medium by Southern blotting. Drugs which inhibit viral replication reduce the levels of virion DNA in the medium, relative to controls.
Confluent cells in 24 well tissue culture dishes are treated with test compounds starting at 1 nM and extending logarithmically to 10 μM (1 nM, 3.2, 10 nM, 32, 100 nM, 1 μM, 10 μM […]). Medium is changed […] every 3 days and DNA extracted from the 3, 6, and […] day samples. The virions are concentrated by polyethylene glycol precipitation (equal volume addition of PEG 8000). After cooling on ice the samples are spun and the pellets treated with SDS and Proteinase K followed by Phenol:Chloroform extraction and ethanol precipitation of the DNA. The DNA is analyzed for HBV sequences by Southern hybridization. The probe used for the analysis is a ^32P labeled Eco RI fragment from the HBV clone described by Korba et al. 3TC is used as a positive control compound with known activity against HBV.
System: The most widely used system for the study of anti-HBV agents is the hepatoma cell culture system with the HBV genome. These cells are designated as the 2.2.15 cells, AD38 cells and AD79 cells. The 2.2.15 cells were generated by the transfection of the human hepatoma cells—HepG2 with HBV DNA. (Sells, et al., Proc. Natl. Acad. Sci. USA 84:1005–1009, 1987) HBV viral replication takes place in these cells. The HBV replication can be monitored intracellularly as well as extracellularly in these cells.
Assay for Anti-HBV agents: 2.215 cells are grown in multi-well dishes in RPMI medium supplemented with 4% fetal bovine serum. After 3 to 4 days of growing the cells, they are treated with varying concentrations of the test compound(s). The test compounds are dissolved in DMSO or sterile water. Cultures without the addition of the test compounds serve as controls. The addition of the test compound(s) is repeated at 3-day intervals. The medium is changed and replaced with appropriate concentration of the test compound. At the end of the 9-day treatment period, the culture medium is harvested and processed for viral DNA. The viral DNA thus obtained is analyzed by Southern blot analysis. After the Southern transfer, the blot is subjected to hybridization to an HBV specific probe to detect HBV DNA. The hybriodization is carried out overnight. After the hybridization, free probe is removed by washing of the blots. The specific hybridization is visualized by autoradiography. Inhibition produced by the test compound is calculated with reference to the levels of HBV DNA in the control samples.

HIV = conditions: literature; cited from earlier work
[2] = system: murine leukemia virus (MuLV); conditions: literature; cited from earlier work
HSV-1 = conditions: literature; cited from earlier work
HSV-2 = conditions: literature; cited from earlier work
[3] = system: human cytomegalovirus (HCMV); conditions: literature; cited from earlier work
[4] = system: Varicella zoster virus (VZV); conditions: literature; cited from earlier work
Epstein Barr virus (EBV) = conditions: literature; cited from earlier work
HBV [5] = conditions: background statement; cited from earlier work
HIV-1 = assay: Anti-HIV evaluation in human PBM cells; format: cell-based; conditions: HIV-1
Source text: (§1) Human PBM cells from healthy donors, seronegative for HIV-1 and HBV, are isolated by a single-step Ficoll-Hypaque discontinuous gradient centrifugation and propagated as described previously (Schinazi et al., Antimicrobial Agents Chemother., 1990, 34:1061; 1992, 36:2423; 1993, 37:875). Compounds are screened for activity against HIV-1 and cytotoxicity by a protocol reported previously reported by Schinazi, et al. The prototype strain of HIV-1LAI obtained from the Centers for Disease Control and Prevention, Atlanta, Ga., is used as the standard virus for the studies in human PBM cells.

PBM cells = assay: Cytotoxicity in PBM cells; format: cell-based, human
Protocol: (§2) We also perform toxicity assays by measuring the inhibition of uptake of […] dye by treated cells. These assays are done in 96 well plates. After the standard 10 day treatment regimen medium is removed and PBS containing MTS dye added to each well. After a 2 hour incubation the absorbance of the metabolized product is measured at 490 nm.
as §1

Vero cells = assay: Cytotoxicity in Vero cells; format: cell-based
Protocol: as §2

[6] = biological target: reverse transcriptase of human immunodeficiency virus (Human immunodeficiency virus type 1 group M subtype B, UniProt P03366); conditions: tested as the 5′-triphosphate; cited from earlier work
[7] = Cytotoxicity in CEM cells; format: cell-based; conditions: human
Protocol: as §2

HSV = conditions: literature; cited from earlier work

Structure (SMILES)	Activity against HIV (in words) (HIV)	EC50 (HBV [1]) [µM]	EC50 (HIV-1) [µM]	IC50 (PBM cells) [µM]	IC50 (Vero cells) [µM]	further results
Cc1cn([C@H]2C[C@H](CO)[C@@H](CO)O2)c(=O)[nH]c1=O [3′-deoxy-3′-hydroxymethylthymidine]	devoid of activity					Activity against HBV (in words) (HBV [1]; "we discovered"): potent agent; Activity against MuLV (in words) [2]: devoid of activity; Activity against HSV-1 (in words) (HSV-1): devoid of activity; Activity against HSV-2 (in words) (HSV-2): devoid of activity; Activity against HCMV (in words) [3]: devoid of activity; Activity against VZV (in words) [4]: devoid of activity; Activity against EBV (in words) (Epstein Barr virus (EBV)): devoid of activity
Nc1nc(=O)n([C@@H]2O[C@H](CO)[C@@H](O)[C@@H]2F)cc1I [Fiacitabine]	devoid of activity					Activity against HBV (in words) (HBV [5]): effectively inhibit replication
Cc1cn(C2CC(CO)C(CO)O2)c(=O)[nH]c1=O (stereo not shown) [Compound 4 (Series 1)]		> 10	87.7	> 100	> 100	
Cc1cn([C@H]2C[C@H](N=[N+]=[N-])[C@@H](CO)O2)c(=O)[nH]c1=O [Zidovudine]						Activity against HBV (in words) (HBV [5]): inactive; Inhibition of HIV reverse transcriptase (in words) [6]: potent inhibitor
CO[C@H]1C[C@H](n2cc(C)c(=O)[nH]c2=O)O[C@@H]1CO [3′-O-methylthymidine]	inactive					Inhibition of HIV reverse transcriptase (in words) [6]: exceptionally potent inhibitor
O=c1[nH]c(=O)n([C@@H]2O[C@H](CO)[C@@H](O)[C@@H]2F)cc1I [Fialuridine]	devoid of activity					Activity against HBV (in words) (HBV [5]): effectively inhibit replication
Cc1cn(C2OC(CO)C(CO)C2F)c(=O)nc1N (stereo not shown) [Compound 11 (Series 2)]		< 10	112	> 100	> 100	Antiviral activity (in words) (HBV [1]; virus not named): moderate activities; IC50 at 10 day [7]: > 100 µM
Nc1ccn([C@H]2C[C@H](CO)[C@@H](CO)O2)c(=O)n1 [2′,3′-dideoxy-3′-hydroxymethyl-cytidine]	good activity					Activity against HSV (in words) (HSV): active
CN(O)C1C(CO)OC(n2cc(F)c(=O)[nH]c2=O)C1F (stereo not shown) [Compound 61 (Series 2)]		> 10	52.3	> 100	> 100	
O=c1[nH]c(=O)n(C2O[C@H](CO)[C@@H](CO)[C@@H]2O)cc1C=CBr (stereo partly drawn) [5-bromovinyl-1-(3-deoxy-3-hydroxymethyl-D-arabinofuranosyl)-uracil]						Activity against HSV (in words) (HSV): active
Cc1cn(C2CC(CO)N(C)O2)c(=O)[nH]c1=O (stereo not shown) [Compound 40 (Series 2)]		> 10	> 100	> 100	> 100	
